Entries after “also recorded” stand apart in the source; their conditions may differ. Ends that are not written are not given here. * marks the point of attachment. Meth = methacrylated, methacrylate group attached (2-isocyanatoethyl methacrylate used), C=C(C)C(=O)OCCNC(=O)*
Columns and labels:
hADSCs = experiment: hADSC adhesion on peptide-functionalized PEGDA-700 hydrogel microarray (peptide function validation, glycine linker length); type: cell-based, human; settings: for adhesion of hADSCs on peptide-functionalized PEGDA-700 hydrogels: 15 mM peptide; for saturation number of attached hADSCs relative to MethRGDSP and MethG2RGDSP: saturated (maximum) number of attached cells, peptide 0.5-15 mM, 12 hours
Procedure: PEGDA and methacrylated peptides were mixed at varied peptide concentrations (i.e., 0.5, 1, 3, 6, 9, 12 and 15 mM) to prepare microarrayed hydrogels with different peptide concentrations. hADSCs were seeded onto the array and cultured for 12 hours.
All experiments were conducted using passage 5 (P5) hADSCs.

VLA-6 and αvβ3 integrin = experiment: Integrin antibody blocking of HUVEC adhesion on alginate surface, anti VLA-6 + anti-integrin αvβ3; type: cell-based, human; settings: for integrin binding concluded from blocking experiments: HUVECs on peptide-functionalized alginates; for decrease in HUVEC adhesion when both VLA-6 and αvβ3 integrin are blocked: 2D peptide-functionalized alginate, both antibodies, 6 hours
Procedure: (§1) The integrin antibodies and their combinations (no antibody, anti VLA-6 only, anti-integrin αvβ3 only and anti VLA-6+ anti-integrin αvβ3,) were aliquot into predesigned ratio (final ratios in the mixture: 1:20 for anti VLA-6, 1:100 for anti-integrin αvβ3) with PBS, respectively. The HUVECs were incubated with these antibodies for 15 min, sedimented by low speed centrifugation, suspended in 100 μl of serum-free MEM plus 0.02% BSA and then added into the 1% alginate gel coated wells. The wells were transferred into incubator for 6 hours. After that, unattached cells were rinsed from the wells and the attached cells were then fixed and stained with DAPI for cell number counting and phalloidin for F-actin.

HUVECs (EC integrin) = experiment: HUVEC adhesion on RGD peptide-functionalized PEG hydrogel microarray; type: cell-based, human; settings: for affinity to HUVECs / HUVEC adhesion on PEG hydrogel microarray: 12 hours culture
Procedure: Methacrylated peptides (shown in FIG. 7) were dissolved in DMF at pre-designated ratios (1 mM, 3 mM, 6 mM, 9 mM, 12 mM, 15 mM and 20 mM) and mixed with PEGDA (containing 1% DMPA as initiator) (DMF solution of methacrylated peptide: PEGDA=1:1 (v/v)) and then transferred into a 384 well plate for microarray fabrication. The microarrays were printed in a humid Ar-atmosphere on epoxy monolayer-coated glass slides (Xenopore XENOSLIDE E, Hawthorne, N.J.) which were first dip-coated in 4 v/v % poly(hydroxyethyl methacrylate) (i.e., poly(HEMA)) using a customized microarrayer (Biodot). Spots were polymerized via 10 s exposure to long wave UV (365 nm), dried at <50 mtorr for at least 7 days. Before use, the chips were sterilized by UV for 30 min for each side, and then washed with PBS twice for 15 min to remove residual monomer or solvent. HUVECs (human umbilical vein endothelial cells from Lonza, Basel, Switzerland) were seeded onto the array and cultured for 12 hours. They were then fixed and stained with DAPI for cell number counting and phalloidin for F-actin to estimate cell spreading for the lead peptide identification.

HUVECs [1] = experiment: HUVEC culture in 3D peptide-functionalized alginate hydrogels (spreading, proliferation, network formation); type: cell-based, human; settings: 1% alginate, 10% (w/w) peptide, 6 million HUVECs/ml, 2 days culture
Procedure: The Ca2+ containing substrates for alginate crosslinking was prepared as the previous literature mentioned. Alginate modified with these peptides (RGDS (SEQ ID NO:35), RGDSP (SEQ ID NO:33) and α1-peptide, respectively) was dissolved into HUVECs culturing media to prepare 1% alginate solution. […] mixture of the alginate and HUVECs was transferred into each well in 96 well plates (3 replicates for each peptide). The alginate was left gelling for 40 min. Then the well plates were transferred into incubator for 10 min to melt the Ca2+ containing substrates. After Ca2+ containing substrates get removed, HUVEC culturing media was added into each well and continue culture for additional two days. Media were changed every day. The cells were then fixed and stained with DAPI for cell number counting and phalloidin for F-actin to estimate cell spreading at day 0 and day 2. The fluorescent pictures were taken by a Leica TCS SP5 AOBS confocal microscope system. The total tubule length and the proliferation rates were measured.

KDR (VEGFR2) = experiment: RT-PCR of VEGFR2 mRNA in HUVECs in 3D peptide-modified alginate gel; type: cell-based, human; settings: HUVECs in 3D peptide-functionalized alginate hydrogels, 6 hours culture
Procedure: Before PCR experiments, HUVECs were seeded in three different peptides (RGDS (SEQ ID NO:35), RGDSP (SEQ ID NO:33) and α1-peptide, respectively) modified 1% alginate gel. The cells were cultured for 6 hrs and then harvest for RNA isolation. Total RNA was isolated according to the kit and protocol of an RNeasy Micro Kit (Qiagen, Vinlo, Netherlands) with the addition of the QIAShredder (Qiagen) during the homogenization step for HUVECs. For each group, around 0.1 million cells were used for RNA isolation. At least 25 ng of total RNA for each group was used for cDNA synthesis by the Bio-Rad (Hercules, USA) iScript cDNA synthesis kit. qRT-PCR was executed with “best coverage” validated Taqman primers (Life Technologies, Carlsbad, USA) in 10 μl reactions for the following genes: KDR (VEGFR2), ACTB, GAPDH. qRT-PCR Data was normalized as the change in cycle threshold (dCt) from the geometric mean of ACTB and GAPDH expression. Expression was analyzed using mRNA expression=2^(−(dCt)) and then normalized to the gene expression from RGDS (SEQ ID NO:35) samples.

VLA-6 integrin = target: T1, VLA-6 integrin (Homo sapiens, UniProt P05556+P23229); experiment: Integrin antibody blocking of HUVEC adhesion on alginate surface, anti VLA-6; type: cell-based; settings: 2D peptide-functionalized alginate, anti VLA-6 1:20, 6 hours
T1 construct: endogenous in cells; host or cells: HUVEC
Procedure: as §1

[2] = test system: VLA-6 (α6) and αvβ3 integrin subunits; settings: cited from earlier work
αvβ3 integrin = target: T2, αvβ3 integrin (Homo sapiens, UniProt P05106+P06756); experiment: Integrin antibody blocking of HUVEC adhesion on alginate surface, anti-integrin αvβ3; type: cell-based; settings: 2D peptide-functionalized alginate, anti-integrin αvβ3 1:100, 6 hours
T2 construct: endogenous in cells; host or cells: HUVEC
Procedure: as §1

hiPSC-CMs [3] = experiment: hiPSC-CM adhesion on RGD peptide-functionalized PEG hydrogel microarray; type: cell-based, human; settings: 15 mM peptide, 3 days culture, 18 replicates
Procedure: (§2) PEGDA and methacrylated peptides were mixed at one fixed peptide concentration (15 mM) to prepare microarrayed hydrogels with a constant peptide concentration. hiPSC-CMs (human induced pluripotent stem cell-derived cardiomyocytes from Cellular Dynamics International, Madison, Wis., USA) were seeded onto the microarray and cultured for 3 days to facilitate the formation of sarcomere structures. hiPSC-CMs were stained with DAPI to approximate cell number and phalloidin for F-actin to estimate cell spreading. Sarcomere structure was examined by using immunofluorescence microscopy.
hiPSC-derived cardiomyocytes (iCell Cardiomyocytes, Cellular Dynamics International, Madison, Wis., USA) were cultured according to the manufacturer's protocol. Briefly, hiPSC-derived cardiomyocytes were plated on 0.1% gelatin coated 6-well plates in iCell Cardiomyocytes Plating Medium (Cellular Dynamics International) at a density of about 3×10^5 to 4.0×10^5 cells/well and incubated at 37° C. in 5% CO2 for 4 days. Two days after plating, the plating medium was removed and replaced with 4 mL of iCell Cardiomyocytes Maintenance Medium (Cellular Dynamics International). After 4 days of monolayer pre-culture, cells were detached using trypLE Express (Gibco Life Technologies, Grand Island, N.Y.) and seeded along with culture media on the hydrogel microarrays. […] Sarcomere structures were visualized using sarcomere actinin and troponin-I staining as described above.

hiPSC-CMs [4] = experiment: Sarcomere formation / alpha sarcomeric actinin expression of hiPSC-CMs on hydrogel microarray; type: cell-based, human; settings: 15 mM peptide, 3 days culture
Procedure: as §2
Briefly, hiPSC-CMs on the microarray were fixed with 4% PFA solution and blocked by 10% goat serum. […] Z-stacked Images collected from the microarray were analyzed by using the ImageJ (National Institutes of Health) for semi-quantitative analysis of the expression level of alpha sarcomeric actinin of hiPSC-CMs on the microarrays. The sarcomeric actinin expression level of hiPSC-CMs on each hydrogel spot was determined by the total fluorescence intensities of sarcomeric actinin staining divided by the total cell number on the hydrogel spot, which was then normalized to the blank PEG-700 hydrogel spots. […]

HUVECs [5] = experiment: HUVEC adhesion on 2D surface of peptide-modified alginate hydrogel; type: cell-based, human; settings: 10% (w/w) peptide, 1% alginate, versus RGDS
Procedure: The peptides were conjugated onto the oxidized alginate by the EDC-NHS chemistry as reported by Rowley: using aqueous carbodiimide reacted with peptides (RGDS (SEQ ID NO:35), RGDSP (SEQ ID NO:33) and α1-peptide) onto the oxidized alginate. In order to secure sufficient cell attachment, 10% (w/w) peptide modification was performed into the alginate hydrogel.
The Ca2+ containing substrates for alginate crosslinking was prepared according to the literature. 50 μl, 1% alginate modified with peptides (RGDS (SEQ ID NO:35), RGDSP (SEQ ID NO:33) and α1-peptide, respectively) aqueous solution was transferred into each well in 96 well plates (3 replicates for each peptide). The alginate was left gelling for 40 min. Then the well plates were transferred into incubator for 10 min to melt the Ca2+ containing substrates. After Ca2+ containing substrates get removed, HUVECs were seeded onto the hydrogel layers and cultured for 12 hours. Then they were fixed and stained with DAPI for cell number counting and phalloidin for F-actin to estimate cell spreading.

T1 sequence (P23229 24-938 limits assumed): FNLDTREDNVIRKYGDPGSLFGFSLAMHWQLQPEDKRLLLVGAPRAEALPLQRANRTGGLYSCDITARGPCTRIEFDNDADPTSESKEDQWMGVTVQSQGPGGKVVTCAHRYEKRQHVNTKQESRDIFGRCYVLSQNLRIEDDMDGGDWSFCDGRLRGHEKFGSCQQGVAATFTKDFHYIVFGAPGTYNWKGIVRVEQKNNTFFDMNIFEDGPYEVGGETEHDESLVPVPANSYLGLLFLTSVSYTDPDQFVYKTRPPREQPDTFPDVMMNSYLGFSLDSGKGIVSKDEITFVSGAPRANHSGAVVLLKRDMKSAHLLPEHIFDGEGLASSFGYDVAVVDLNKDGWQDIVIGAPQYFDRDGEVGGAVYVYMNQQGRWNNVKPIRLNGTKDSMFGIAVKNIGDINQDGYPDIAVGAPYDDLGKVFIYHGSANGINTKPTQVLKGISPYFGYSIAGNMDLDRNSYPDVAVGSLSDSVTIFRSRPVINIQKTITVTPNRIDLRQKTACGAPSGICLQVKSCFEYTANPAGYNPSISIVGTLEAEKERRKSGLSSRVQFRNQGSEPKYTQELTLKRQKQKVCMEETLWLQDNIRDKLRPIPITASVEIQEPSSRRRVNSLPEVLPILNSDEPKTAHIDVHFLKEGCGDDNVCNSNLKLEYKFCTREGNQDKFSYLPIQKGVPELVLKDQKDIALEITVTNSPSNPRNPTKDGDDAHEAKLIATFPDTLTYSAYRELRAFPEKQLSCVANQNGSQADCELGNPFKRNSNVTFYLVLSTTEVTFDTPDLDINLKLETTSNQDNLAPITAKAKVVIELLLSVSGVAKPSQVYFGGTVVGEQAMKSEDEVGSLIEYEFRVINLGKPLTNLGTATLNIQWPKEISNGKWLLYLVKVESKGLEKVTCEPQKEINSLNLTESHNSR
T1 sequence (P23229 942-1130 partner limits assumed): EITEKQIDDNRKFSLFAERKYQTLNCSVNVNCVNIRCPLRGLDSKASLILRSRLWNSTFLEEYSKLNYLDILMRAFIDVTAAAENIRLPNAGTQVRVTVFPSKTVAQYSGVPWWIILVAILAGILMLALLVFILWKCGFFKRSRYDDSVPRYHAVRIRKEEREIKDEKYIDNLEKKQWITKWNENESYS
T1 sequence (P05556 21-798): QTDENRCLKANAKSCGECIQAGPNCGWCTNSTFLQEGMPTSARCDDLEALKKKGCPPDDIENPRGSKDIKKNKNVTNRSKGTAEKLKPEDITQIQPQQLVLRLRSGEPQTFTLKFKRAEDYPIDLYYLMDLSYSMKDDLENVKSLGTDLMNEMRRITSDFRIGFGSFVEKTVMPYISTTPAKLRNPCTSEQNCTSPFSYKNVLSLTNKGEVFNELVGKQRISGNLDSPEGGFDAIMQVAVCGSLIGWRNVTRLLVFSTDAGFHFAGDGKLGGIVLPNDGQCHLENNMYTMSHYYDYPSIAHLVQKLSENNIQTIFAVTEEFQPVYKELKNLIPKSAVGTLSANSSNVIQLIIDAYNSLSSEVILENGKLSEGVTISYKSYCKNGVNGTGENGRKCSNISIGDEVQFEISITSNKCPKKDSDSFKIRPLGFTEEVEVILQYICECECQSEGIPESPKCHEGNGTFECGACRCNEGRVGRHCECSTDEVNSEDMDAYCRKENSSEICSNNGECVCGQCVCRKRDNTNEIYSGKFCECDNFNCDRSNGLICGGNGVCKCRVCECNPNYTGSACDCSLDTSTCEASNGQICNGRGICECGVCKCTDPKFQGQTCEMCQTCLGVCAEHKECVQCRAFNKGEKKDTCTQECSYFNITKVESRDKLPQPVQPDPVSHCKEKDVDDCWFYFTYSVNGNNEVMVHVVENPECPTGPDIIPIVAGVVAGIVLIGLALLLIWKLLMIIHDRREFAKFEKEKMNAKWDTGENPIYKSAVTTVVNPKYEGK
T2 sequence (P06756 31-889 limits assumed): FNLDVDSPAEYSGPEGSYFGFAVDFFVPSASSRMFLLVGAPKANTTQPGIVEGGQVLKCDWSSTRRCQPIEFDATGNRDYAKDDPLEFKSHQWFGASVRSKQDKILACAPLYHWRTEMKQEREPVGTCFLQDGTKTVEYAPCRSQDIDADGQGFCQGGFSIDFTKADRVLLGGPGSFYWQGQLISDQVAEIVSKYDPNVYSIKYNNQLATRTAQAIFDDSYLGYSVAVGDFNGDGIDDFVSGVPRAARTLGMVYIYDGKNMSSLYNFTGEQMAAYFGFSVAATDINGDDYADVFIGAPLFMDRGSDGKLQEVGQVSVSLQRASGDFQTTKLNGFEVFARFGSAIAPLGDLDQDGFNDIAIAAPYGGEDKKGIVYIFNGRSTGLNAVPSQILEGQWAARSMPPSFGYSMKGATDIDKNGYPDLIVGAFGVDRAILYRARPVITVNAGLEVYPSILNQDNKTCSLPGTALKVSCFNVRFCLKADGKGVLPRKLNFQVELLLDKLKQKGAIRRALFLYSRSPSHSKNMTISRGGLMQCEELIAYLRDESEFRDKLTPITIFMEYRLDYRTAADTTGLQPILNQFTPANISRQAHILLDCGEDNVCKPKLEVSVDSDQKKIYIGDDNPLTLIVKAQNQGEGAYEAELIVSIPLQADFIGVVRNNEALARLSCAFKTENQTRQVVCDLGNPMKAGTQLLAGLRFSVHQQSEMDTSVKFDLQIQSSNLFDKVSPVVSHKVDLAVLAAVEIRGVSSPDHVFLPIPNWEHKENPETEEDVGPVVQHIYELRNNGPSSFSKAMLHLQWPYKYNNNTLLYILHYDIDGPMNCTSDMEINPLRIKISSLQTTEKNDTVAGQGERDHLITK
T2 sequence (P06756 891-1048 partner limits assumed): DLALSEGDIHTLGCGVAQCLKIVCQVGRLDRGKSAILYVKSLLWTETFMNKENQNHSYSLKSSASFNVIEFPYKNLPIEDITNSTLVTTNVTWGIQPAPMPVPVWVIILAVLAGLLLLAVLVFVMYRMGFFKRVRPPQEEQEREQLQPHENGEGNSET
T2 sequence (P05106 27-788): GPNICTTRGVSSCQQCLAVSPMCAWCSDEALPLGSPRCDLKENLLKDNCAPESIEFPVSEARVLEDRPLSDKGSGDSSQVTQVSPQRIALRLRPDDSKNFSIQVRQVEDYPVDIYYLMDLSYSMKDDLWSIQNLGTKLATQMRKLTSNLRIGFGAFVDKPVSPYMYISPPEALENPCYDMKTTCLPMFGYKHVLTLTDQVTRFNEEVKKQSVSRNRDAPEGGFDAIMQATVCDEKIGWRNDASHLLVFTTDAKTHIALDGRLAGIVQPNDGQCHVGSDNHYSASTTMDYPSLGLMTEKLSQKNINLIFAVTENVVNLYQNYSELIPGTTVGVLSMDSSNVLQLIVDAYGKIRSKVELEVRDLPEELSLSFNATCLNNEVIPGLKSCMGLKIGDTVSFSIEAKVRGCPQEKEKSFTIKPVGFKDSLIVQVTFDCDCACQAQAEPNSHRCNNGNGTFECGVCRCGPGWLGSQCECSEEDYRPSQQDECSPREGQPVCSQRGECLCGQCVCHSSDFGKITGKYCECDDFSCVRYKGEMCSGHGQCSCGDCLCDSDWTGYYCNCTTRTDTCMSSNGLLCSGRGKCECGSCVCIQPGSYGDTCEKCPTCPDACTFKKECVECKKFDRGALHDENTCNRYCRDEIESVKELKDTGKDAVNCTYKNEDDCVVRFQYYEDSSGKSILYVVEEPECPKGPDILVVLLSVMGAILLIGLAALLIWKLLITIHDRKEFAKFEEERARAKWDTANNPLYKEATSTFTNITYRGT

For “MethG4RGDSP: methacrylated-RGDSP-peptide with 4 glycine linker (Meth-GGGGRGDSP)”, the “adhesion of hADSCs on peptide-functionalized PEGDA-700 hydrogels” value (hADSCs) was “effectively promote adhesion of hADSCs” and the “saturation number of attached hADSCs relative to MethRGDSP and MethG2RGDSP” value (hADSCs) was “about one-fold higher”.

With RGDSP [RGD peptide derived from Fn] the “integrin binding concluded from blocking experiments” value (“integrin binding concluded” for short) (VLA-6 and αvβ3 integrin) was “bind to αvβ3 integrin”, the “affinity to HUVECs / HUVEC adhesion on PEG hydrogel microarray” value (HUVECs (EC integrin)) was “significantly higher affinity to HUVECs than RGDS” and the “HUVEC spreading, proliferation and network formation in 3D alginate hydrogel” value (shortened to “HUVEC spreading”) (HUVECs [1]) was “limited cell spreading and no visible network formation”. The “mRNA expression of VEGFR2” value (KDR (VEGFR2)) was “significant higher amount of VEGFR2 mRNA expression” and the “decrease in HUVEC adhesion when VLA-6 integrin is blocked” value (VLA-6 integrin) was “does not significantly affect cell adhesion”.

For “CQAGTFALRGDNPQG [A99, similar Ln derived peptide]”, the “integrin binding reported for A99” value [2] is given as “bind to both VLA-6 (α6) and αvβ3 integrin subunits”.

With RGDS [RGD peptide derived from Fn] the “decrease in HUVEC adhesion when both VLA-6 and αvβ3 integrin are blocked” value (VLA-6 and αvβ3 integrin) was ~35%, the “integrin binding concluded” value (VLA-6 and αvβ3 integrin) was “bind to αvβ3 integrin” and the “HUVEC spreading” value (HUVECs [1]) was “limited cell spreading and no visible network formation”. The “decrease in HUVEC adhesion when αvβ3 integrin is blocked” value (αvβ3 integrin) was ~35% and the “decrease in HUVEC adhesion when VLA-6 integrin is blocked” value (VLA-6 integrin) was “does not significantly affect cell adhesion”.

For “G4RDGSP: methacrylated scrambled sequence of G4RGDSP (Meth-GGGGRDGSP) [reference compound]”, the “adhesion of hADSCs on peptide-functionalized PEGDA-700 hydrogels” value (hADSCs) was “no cell adhesion”.

For “MethG6RGDSP: methacrylated-RGDSP-peptide with 6 glycine linker (Meth-GGGGGGRGDSP)”, the “saturation number of attached hADSCs relative to MethRGDSP and MethG2RGDSP” value (hADSCs) was “about one-fold higher”.

For “PQVTRGDVFTMP [RGD peptide from vitronectin, included as a control, reference compound]”, the “hiPSC-CM adhesion / affinity to hiPSC-CMs” value (shortened to “hiPSC-CM adhesion / affinity”) (hiPSC-CMs [3]) was “moderate cell adhesion”.

For “PMQKMRGDVFSP [derived from Laminin subunit β4]”, the “sarcomere formation / sarcomeric actinin expression of hiPSC-CMs” value (hiPSC-CMs [4]) was “greatest ability to promote hiPSC-CM adhesion and sarcomere formation; also recorded: most developed sarcomere structures”, the “sarcomere formation / sarcomeric actinin expression of hiPSC-CMs” value (hiPSC-CMs [4]; listed as RGD (SEQ ID NO:36) peptide from laminin β4 subunit) was “highest sarcomeric actinin expression” and the “hiPSC-CM adhesion / affinity” value (hiPSC-CMs [3]) was “greatest ability to promote hiPSC-CM adhesion; also recorded: substantial activities to support hiPSC-CM adhesion; also recorded: highest affinity to hiPSC-CMs”.

With “SETQRGDVFVP [RGD peptide of the 12-peptide library, reference compound]” the “hiPSC-CM adhesion / affinity” value (hiPSC-CMs [3]) was “moderate cell adhesion”.

For “DAVKQLQAAERGDA [derived from Laminin subunit α4]”, the “hiPSC-CM adhesion / affinity” value (hiPSC-CMs [3]) was “substantial activities to support hiPSC-CM adhesion”.

In the case of “TFALRGDNP [α1 peptide, RGD peptide derived from Ln α1 subunit]”, the “number of HUVECs attached to 2D surface of alginate hydrogel, higher than RGDS” value (HUVECs [5]) is reported as ~150%, the “decrease in HUVEC adhesion when both VLA-6 and αvβ3 integrin are blocked” value (VLA-6 and αvβ3 integrin) is reported as ~70% and the “integrin binding concluded” value (VLA-6 and αvβ3 integrin) is reported as “binds to both VLA-6 and αvβ3 integrin”. For the same substance, the “affinity to HUVECs / HUVEC adhesion on PEG hydrogel microarray” value (HUVECs (EC integrin)) was “highest activities to promote HUVEC adhesion”, the “saturated number of attached HUVECs, higher than RGDS” value (HUVECs (EC integrin); PEG hydrogel microarray, versus RGDS) was ~500% and the “saturated number of attached HUVECs, higher than RGDSP” value (HUVECs (EC integrin); PEG hydrogel microarray, versus RGDSP) was ~200%. For the same substance, the “HUVEC spreading” value (HUVECs [1]) was “significantly enhanced cell proliferation and network formation” and the “mRNA expression of VEGFR2” value (KDR (VEGFR2)) was “significantly up-regulated”.

Source: US11150251B2, “Bi-functional arginine-glycine-aspartic acid (RGD) peptides and methods to promote angiogenesis” (Clemson University Research Foundation, priority 2016, dated 2021)
